Source: patent US20110301142A1, “ANTAGONISTS OF LYSOPHOSPHATIDIC ACID RECEPTORS” (priority 2008, published 2011)
pIC50: −log10 of the molar value.

What was measured:
human LPA1 = target: T1, human LPA1 (Homo sapiens, UniProt Q92633); test: LPA1 calcium flux assay (HLPA1 Ca Flux); assay type: cell-based; details: Human LPA1 expressing CHO cells, stimulated with 10 nM LPA
T1 construct: the full-length cDNA for human LPA1 was obtained by PCR of the reverse transcription reaction; expressed in transfected cells
Description: A 1.1 kb cDNA encoding the human LPA1 receptor was cloned from human lung. Human lung RNA (Clontech Laboratories, Inc. USA) was reverse transcribed using the RETROscript kit (Ambion, Inc.) and the full-length cDNA for human LPA1 was obtained by PCR of the reverse transcription reaction. The nucleotide sequence of the cloned human LPA1 was determined by sequencing and confirmed to be identical to the published human LPA1 sequence (An et al. Biochem. Biophys. Res. Commun. 231:619 (1997). The cDNA was cloned into the pcDNAS/FRT expression plasmid and transfected in CHO cells using lipofectamine 2000 (Invitrogen Corp., USA). Clones stably expressing human LPA1 were selected using hygromycin and identified as cells that show Ca-influx in response to LPA.
(§1) Human LPA1 or LPA3 expressing CHO cells are seeded at 20,000-45,000 cells per well in a 96-well poly-D-lysine coated plate one or two days before the assay. Prior to the assay, the cells are washed once with PBS and then cultured in serum-free media overnight. On the day of the assay, a calcium indicator dye (Calcium 4, Molecular Devices) in assay buffer (HBSS with Ca^2+ and Mg^2+ and containing 20 mM Hepes and 0.3% fatty-acid free human serum albumin) is added to each well and incubation continued for 1 hour at 37° C. 10 μl of test compounds in 2.5% DMSO are added to the cells and incubation continued at room temperature for 30 minutes. Cells are the stimulated by the addition of 10 nM LPA and intracellular Ca^2+ measured using the Flexstation 3 (Molecular Devices). IC50s are determined using Graphpad prism analysis of drug titration curves.

human LPA3 = target: T2, human LPA3 (Homo sapiens, UniProt Q9UBY5); test: LPA3 calcium flux assay; assay type: cell-based; details: Human LPA3 expressing CHO cells, stimulated with 10 nM LPA; read-out: HLPA3 Ca Flux IC50
T2 construct: The full-length cDNA fragment for human LPA3 was obtained by PCR from the vector; expressed in transfected cells; cDNA from the Missouri S&T cDNA Resource Center
T2 sequence (Q9UBY5 1-353): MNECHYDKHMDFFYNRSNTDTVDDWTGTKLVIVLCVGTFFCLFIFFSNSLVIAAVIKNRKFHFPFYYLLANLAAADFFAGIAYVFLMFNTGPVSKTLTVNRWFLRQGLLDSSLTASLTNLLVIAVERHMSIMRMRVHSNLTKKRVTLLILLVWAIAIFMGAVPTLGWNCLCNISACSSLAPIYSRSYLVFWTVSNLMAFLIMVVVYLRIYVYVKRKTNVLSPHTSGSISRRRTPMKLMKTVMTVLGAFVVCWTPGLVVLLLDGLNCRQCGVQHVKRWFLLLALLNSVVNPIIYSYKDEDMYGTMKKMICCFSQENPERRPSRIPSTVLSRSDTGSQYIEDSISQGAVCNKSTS
Description: A vector containing the human LPA3 receptor cDNA was obtained from the Missouri S&T cDNA Resource Center (www.cdna.org). The full-length cDNA fragment for human LPA3 was obtained by PCR from the vector. The nucleotide sequence of the cloned human LPA3 was determined by sequencing and confirmed to be identical to the published human LPA3 sequence (NCBI accession number NM 012152). The cDNA was cloned into the pcDNA5/FRT expression plasmid and transfected in CHO cells using lipofectamine 2000 (Invitrogen Corp., USA). Clones stably expressing human LPA3 were selected using hygromycin and identified as cells that show Ca-influx in response to LPA.
as §1

T1 sequence (Q92633 whole entry): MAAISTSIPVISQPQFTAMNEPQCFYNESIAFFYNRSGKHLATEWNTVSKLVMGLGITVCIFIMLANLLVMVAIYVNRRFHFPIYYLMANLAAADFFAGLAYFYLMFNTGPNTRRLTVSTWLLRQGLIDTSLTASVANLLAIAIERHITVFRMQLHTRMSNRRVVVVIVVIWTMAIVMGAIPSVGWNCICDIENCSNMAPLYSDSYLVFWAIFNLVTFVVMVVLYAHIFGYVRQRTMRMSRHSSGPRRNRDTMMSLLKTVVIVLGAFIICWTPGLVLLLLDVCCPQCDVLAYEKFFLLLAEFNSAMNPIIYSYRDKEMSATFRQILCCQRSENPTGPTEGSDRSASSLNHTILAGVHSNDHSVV

SMILES: Cc1noc(-c2ccc(Cc3ccc(C(=O)O)s3)cc2)c1NC(=O)OC(C)c1ccccc1Cl (centres unmarked) [Compound 1-15, 5-(4-{4-[1-(2-Chloro-phenyl)-ethoxycarbonylamino]-3-methyl-isoxazol-5-yl}-benzyl)-thiophene-2-carboxylic acid]
- pIC50 (human LPA1): > 6.52
- pIC50 (human LPA3): 4.30 to 6.00

SMILES: Cc1noc(-c2ccc(Oc3cccc(CC(=O)O)c3)cc2)c1NC(=O)O[C@H](C)c1ccccc1F [Compound 1-96, [3-(4-{4-[1-(2-Fluoro-phenyl)-ethoxycarbonylamino]-3-methyl-isoxazol-5-yl}-phenoxy)-phenyl]-acetic acid]
- pIC50 (human LPA1): > 6.52
- pIC50 (human LPA3): 4.30 to 6.00

SMILES: Cc1noc(-c2ccc(-c3ccc(CC(=O)O)cc3)cc2)c1NC(=O)O[C@H](C)c1ccccc1F [Compound 1-78, (4′-{4-[(R)-1-(2-Fluoro-phenyl)-ethoxycarbonylamino]-3-methyl-isoxazol-5-yl}-biphenyl-4-yl)-acetic acid]
- pIC50 (human LPA1): > 6.52
- pIC50 (human LPA3): 4.30 to 6.00

SMILES: Cc1noc(-c2ccc(Cc3cccc(CC(=O)O)c3)cc2)c1NC(=O)OC(C)c1ccccc1Cl (centres unmarked) [Compound 1-21, [3-(4-{4-[1-(2-Chloro-phenyl)-ethoxycarbonylamino]-3-methyl-isoxazol-5-yl}-benzyl)-phenyl]acetic acid]
- pIC50 (human LPA1): > 6.52
- pIC50 (human LPA3): 4.30 to 6.00

SMILES: Cc1noc(-c2ccc(-c3ccc(CC(=O)O)cc3)cc2)c1NC(=O)O[C@@H](C)c1ccccc1 [Compound 1-143, {4′-[3-Methyl-4-((S)-1-phenyl-ethoxycarbonylamino)-isoxazol-5-yl]-biphenyl-4-yl}-acetic acid]
- pIC50 (human LPA1): > 6.52
- pIC50 (human LPA3): 4.30 to 6.00

SMILES: Cc1noc(-c2ccc(Cc3ccc(CC(=O)O)cc3)cc2)c1NC(=O)O[C@H](C)c1ccccc1F [Compound 1-81, [4-(4-{4-[(R)-1-(2-Fluoro-phenyl)-ethoxycarbonylamino]-3-methyl-isoxazol-5-yl}-benzyl)-phenyl]-acetic acid]
- pIC50 (human LPA1): > 6.52
- pIC50 (human LPA3): 4.30 to 6.00

SMILES: Cc1noc(-c2ccc(-c3ccc(C(=O)O)cc3)cc2)c1NC(=O)O[C@H](C)c1ccccc1 [Compound 1-122]
- pIC50 (human LPA1): > 6.52
- pIC50 (human LPA3): 4.30 to 6.00

SMILES: Cc1noc(-c2ccc(-c3ccc(CC(=O)O)cc3)cc2)c1NC(=O)OC(C)c1ccccc1C(F)(F)F (centres unmarked) [Compound 1-23, (4′-{3-Methyl-4-[1-(2-trifluoromethyl-phenyl)-ethoxycarbonylamino]-isoxazol-5-yl}-biphenyl-4-yl)-acetic acid]
- pIC50 (human LPA1): > 6.52
- pIC50 (human LPA3): 4.30 to 6.00

SMILES: COC(=O)Cc1cccc(Oc2ccc(-c3onc(C)c3NC(=O)O[C@H](C)c3ccccc3F)cc2)c1 [Compound 1-95, [3-(4-{4-[1-(2-Fluoro-phenyl)-ethoxycarbonylamino]-3-methyl-isoxazol-5-yl}-phenoxy)-phenyl]acetic acid methyl ester]
- pIC50 (human LPA1): > 6.52
- pIC50 (human LPA3): 4.30 to 6.00

SMILES: COc1ccccc1C(C)OC(=O)Nc1c(C)noc1-c1ccc(-c2ccc(CC(=O)O)cc2)cc1 (centres unmarked) [Compound 1-28, (4′-{4-[1-(2-Methoxy-phenyl)-ethoxycarbonylamino]-3-methyl-isoxazol-5-yl}-biphenyl-4-yl)-acetic acid]
- pIC50 (human LPA1): > 6.52
- pIC50 (human LPA3): < 4.30

SMILES: Cc1noc(-c2ccc(-c3ccc(C(=O)O)cc3)cc2)c1NC(=O)O[C@H](C)c1ccccc1Cl [Compound 1-133, 4′-{4-[(R)-1-(2-Chloro-phenyl)-ethoxycarbonylamino]-3-methyl-isoxazol-5-yl}-biphenyl-4-carboxylic acid]
- pIC50 (human LPA1): > 6.52
- pIC50 (human LPA3): 6.00 to 6.52

SMILES: Cc1noc(-c2ccc(COc3ccccc3CC(=O)O)cc2)c1NC(=O)O[C@H](C)c1ccccc1Cl [Compound 1-114, [2-(4-{4-[(R)-1-(2-Chloro-phenyl)-ethoxycarbonylamino]-3-methyl-isoxazol-5-yl}-benzyloxy)-phenyl]-acetic acid]
- pIC50 (human LPA1): > 6.52
- pIC50 (human LPA3): 4.30 to 6.00

SMILES: Cc1noc(-c2ccc(Oc3ccc(CC(=O)O)cc3)cc2)c1NC(=O)O[C@H](C)c1ccccc1F [Compound 1-84, [4-(4-{4-[(R)-1-(2-Fluoro-phenyl)-ethoxycarbonylamino]-3-methyl-isoxazol-5-yl}-phenoxy)-phenyl]-acetic acid]
- pIC50 (human LPA1): > 6.52
- pIC50 (human LPA3): 4.30 to 6.00

SMILES: Cc1noc(-c2ccc(Cn3cncc3C(=O)O)cc2)c1NC(=O)OC(C)c1ccccc1Cl (centres unmarked) [Compound 1-3, 3-(4-{4-[1-(2-Chloro-phenyl)-ethoxycarbonylamino]-3-methyl-isoxazol-5-yl}-benzyl)-3H-1-imidazole-4-carboxylic acid]
- pIC50 (human LPA1): > 6.52
- pIC50 (human LPA3): 4.30 to 6.00

SMILES: Cc1noc(-c2ccc(-c3ccc(C(C)C(=O)O)cc3)cc2)c1NC(=O)O[C@H](C)c1ccccc1Cl (single isomer, unassigned) [Compound 1-127]
- pIC50 (human LPA1): > 6.52
- pIC50 (human LPA3): 6.00 to 6.52

SMILES: Cc1noc(-c2ccc(-c3ccc(C(=O)O)cn3)cc2)c1NC(=O)OC(C)c1ccccc1Cl (centres unmarked) [Compound 1-54, 6-(4-{4-[1-(2-Chloro-phenyl)-ethoxycarbonylamino]-3-methyl-isoxazol-5-yl}-phenyl)-nicotinic acid]
- pIC50 (human LPA1): > 6.52
- pIC50 (human LPA3): 4.30 to 6.00

SMILES: Cc1noc(-c2ccc(Cc3cccc(C(=O)O)c3)cc2)c1NC(=O)OC(C)c1ccccc1Cl (centres unmarked) [Compound 1-5, 3-(4-{4-[1-(2-Chloro-phenyl)-ethoxycarbonylamino]-3-methyl-isoxazol-5-yl}-benzyl)-benzoic acid]
- pIC50 (human LPA1): > 6.52
- pIC50 (human LPA3): 4.30 to 6.00

SMILES: Cc1noc(-c2ccc(-c3ccccc3CC(=O)O)cc2)c1NC(=O)OC(C)c1ccccc1Cl (centres unmarked) [Compound 1-57, (4′-{4-[1-(2-Chloro-phenyl)-ethoxycarbonylamino]-3-methyl-isoxazol-5-yl}-biphenyl-2-yl)-acetic acid]
- pIC50 (human LPA1): > 6.52
- pIC50 (human LPA3): 4.30 to 6.00

SMILES: Cc1noc(-c2ccc(-c3ccc(CCCC(=O)O)cc3)cc2)c1NC(=O)OC(C)c1ccccc1Cl (centres unmarked) [Compound 1-75, 4-(4′-{4-[1-(2-Chloro-phenyl)-ethoxycarbonylamino]-3-methyl-isoxazol-5-yl}-biphenyl-4-yl)-butyric acid]
- pIC50 (human LPA1): > 6.52

SMILES: Cc1noc(-c2csc(-c3ccc(CC(=O)O)cc3)n2)c1NC(=O)O[C@H](C)c1ccccc1F [Compound 3-3, [4-(4-{4-[(R)-1-(2-Fluoro-phenyl)-ethoxycarbonylamino]-3-methyl-isoxazol-5-yl}-thiazol-2-yl)-phenyl]-acetic acid]
- pIC50 (human LPA1): 4.30 to 6.00

SMILES: Cc1noc(-c2ccc(-c3ccccc3CC(=O)O)cc2)c1NC(=O)O[C@H](C)c1ccccc1 [Compound 1-123]
- pIC50 (human LPA1): 4.30 to 6.00

SMILES: Cc1noc(-c2cccc(-c3ccc(F)c(CC(=O)O)c3)c2)c1NC(=O)OC(C)c1ccccc1Cl (centres unmarked) [Compound 1-43, (3′-{4-[1-(2-Chloro-phenyl)-ethoxycarbonylamino]-3-methyl-isoxazol-5-yl}-4-fluoro-biphenyl-3-yl)-acetic acid]
- pIC50 (human LPA1): 4.30 to 6.00

SMILES: Cc1noc(-c2ccc(Cc3cc(C(=O)O)ccc3Cl)cc2)c1NC(=O)OC(C)c1ccccc1Cl (centres unmarked) [Compound 1-14, 4-Chloro-3-(4-{4-[1-(2-chloro-phenyl)-ethoxycarbonylamino]-3-methyl-isoxazol-5-yl}-benzyl)-benzoic acid]
- pIC50 (human LPA1): 6.00 to 6.52

SMILES: Cc1noc(-c2csc(-c3cccc(CC(=O)O)c3)n2)c1NC(=O)O[C@H](C)c1ccccc1F [Compound 3-6, [3-(4-{4-[(R)-1-(2-Fluoro-phenyl)-ethoxycarbonylamino]-3-methyl-isoxazol-5-yl}-thiazol-2-yl)-phenyl]acetic acid]
- pIC50 (human LPA1): 6.00 to 6.52

SMILES: Cc1noc(-c2ccc(-c3ccccc3C(=O)O)cc2)c1NC(=O)OC(C)c1ccccc1Cl (centres unmarked) [Compound 1-52, 4′-{4-[1-(2-Chloro-phenyl)-ethoxycarbonylamino]-3-methyl-isoxazol-5-yl}-biphenyl-2-carboxylic acid]
- pIC50 (human LPA1): 4.30 to 6.00

SMILES: Cc1noc(-c2ccc(-c3ccc(CC(=O)O)cc3)cc2)c1NC(=O)O[C@H](C)c1cc(Br)cc(Br)c1 [Compound 1-141, (4′-{4-[(R)-1-(3,5-Dibromo-phenyl)-ethoxycarbonylamino]-3-methyl-isoxazol-5-yl}-biphenyl-4-yl)-acetic acid]
- pIC50 (human LPA1): 4.30 to 6.00
